In assay [1] the test system is HIV. Particulars: anti-HIV activity test, values as described in U.S. Pat. No. 5,541,206; cited from earlier work.
The subject of assay [2] is HIV pNL4-3 (subtype B). The assay is described as follows: Antiviral activity in HIV-infected MT-4 cells (MTT cellular viability). The class given is cell-based. Particulars: MOI 0.002, MTT staining at the sixth day, ritonavir as internal control. On the procedure: The anti-HIV activity of the compound of the present invention was determined using MT-4 cells, a lymphocytic cell line established in culture, CD4^+, and expressing HIV-1 […] co-receptors. The cells were infected using a plate having 96 wells containing 10^4 cells/well. The cells were infected with MOI (Multiplicity Of Infection) of 0.002 (NIH requirement=0.001 to 0.01). The drugs were initially diluted in dimethyl sulfoxide (DMSO) to a final concentration of 20 mM and later in RPMI 1640 base medium to a concentration of 200 μM. […] The culture medium utilized for this procedure was RPMI 1640 including 10% bovine fetal serum, antibiotics […]/penicillin and L-glutamine. The most concentrated well has a final concentration of 10.000 μM being followed by the indicated dilutions: 2.0 μM; 0.400 μM; 0.0800 μM; 0.016 μM; 0.0032 μM; 0.00064 μM and 0.000128 μM. The ninth well is considered as the infection control, without adding the drug. Each line having […] infected wells is produced in triplicate for later statistics analyses. […]
The infection test is maintained in an incubator having 5% of CO2 at 37° C. and monitored daily using phase optical microscopy method to verify appearance of syncytia (multinuclear cells). […]

pIC50: −log10 of the molar value.

Regarding `CC(C)Cc1nc(CN(C)C(=O)N[C@H](C(=O)N[C@@H](Cc2ccccc2)C[C@H](O)[C@H](Cc2ccccc2)NC(=O)OCc2cncs2)C(C)C)cs1` [example 59G], in assay [1], the pIC50 is 6.89 to 6.96.

Turning to `CC(C)c1nc(CN(C)C(=O)N[C@H](C(=O)N[C@@H](Cc2ccccc2)C[C@H](O)[C@H](Cc2ccccc2)NC(=O)[C@@H](NC(=O)N(C)Cc2csc(C(C)C)n2)C(C)C)C(C)C)cs1` [example 1C, (2S,3S,5S)-2,5-bis-[N—[N—[[N-methyl-N-[(2-isopropyl-4-thiazolyl)methyl]amino]carbonyl]valinyl]amino]-1,6-diphenyl-3-hydroxyhexane], in assay [2], the “anti-HIV activity (EC50, FIG. 2) in comparison with ritonavir and analogs” value was “surprisingly superior activity”.

For the compound `CC(C)c1nc(CN(C)C(=O)NC(C(=O)NC(Cc2ccccc2)CC(O)C(Cc2ccccc2)NC(=O)OCc2cncs2)C(C)C)cs1` [ritonavir, (2S,3S,5S)-5-[N—[N—[[N-methyl-N-[(2-isopropyl-4-thiazolyl)methyl]amino]carbonyl]vanilyl]amino-2-[N [(5-thiazolyl)methoxycarbonyl]amino-1,6-diphenyl-3-hydroxyhexane], the pIC50 in assay [1] is 7.40 to 7.60.

As for `CC(C)c1nc(CN(C)C(=O)NC(C(=O)NC(Cc2ccccc2)CC(O)C(Cc2ccccc2)NC(=O)OCc2cnc(C(C)C)s2)C(C)C)cs1` (stereo not shown) [example 45C], the pIC50 in assay [1] is 7.40 to 7.44.

The record behind these values is patent US7763733B2, “Ritonavir analogous compound useful as retroviral protease inhibitor, preparation of the ritonavir analogous compound and pharmaceutical composition for the ritonavir analogous compound” (Cristalia Produtos Quimicos Farmaceuticos Ltda., priority 2004, dated 2010).
